In the supplement of paper PMC10307832:

Experiments:
Assay in all cases: relative viability (nuclei count vs DMSO), 5 days (fraction); higher = more cells survive
[1] = compound: CCC1=CN=CN=C1N2CCN(CC2)CC3=NC4=C(N3)C=C(C=C4)C(F)(F)F + Nc1nc2[nH]cc(CCc3ccc(C(=O)N[C@@H](CCC(=O)O)C(=O)O)cc3)c2c(=O)[nH]1 [Pemetrexed] (partner 0.2 µM)
Outline: (§1)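 Each reported value is a median over duplicate plates. It expresses relative viability: treated-well nuclei count divided by vehicle-well nuclei count. Lung cancer cell lines in 1536-well plates were dosed by pin tool a day after seeding, alone with one drug or with a fixed anchor-drug dose plus five library-drug doses (not always all listed) in √10 steps, and nuclei were counted after 5 days.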

[2] = compound: CCC1=CN=CN=C1N2CCN(CC2)CC3=NC4=C(N3)C=C(C=C4)C(F)(F)F + COc1cccc2cc(-c3nc([C@H]4CC[C@H](C(=O)O)CC4)n4ncnc(N)c34)[nH]c12 [OSI-027] (partner 0.5 µM)
Outline: as §1

[3] = compound: CCn1c(-c2nonc2N)nc2cnc(Oc3cccc(NC(=O)c4ccc(OCCN5CCOCC5)cc4)c3)cc21 + CS(=O)(=O)N1CCN(Cc2cc3nc(-c4cccc5[nH]ncc45)nc(N4CCOCC4)c3s2)CC1 [Pictilisib] (partner 1 µM)
Outline: as §1

[4] = compound: CCC1=CN=CN=C1N2CCN(CC2)CC3=NC4=C(N3)C=C(C=C4)C(F)(F)F + O=C(CCCCCCC(=O)Nc1ccccc1)NO [Vorinostat] (partner 1 µM)
Outline: as §1

Cell Line | relative viability ([1]; first compound 0.04 µM) | relative viability ([1]; first compound 0.1265 µM) | relative viability ([1]; first compound 0.4 µM) | relative viability ([1]; first compound 1.265 µM) | relative viability ([1]; first compound 4 µM) | relative viability ([2]; first compound 0.04 µM) | relative viability ([2]; first compound 0.1265 µM) | relative viability ([2]; first compound 0.4 µM) | relative viability ([2]; first compound 1.265 µM) | relative viability ([2]; first compound 4 µM) | relative viability ([3]; first compound 0.04 µM) | relative viability ([3]; first compound 0.1265 µM) | relative viability ([3]; first compound 1.265 µM) | relative viability ([3]; first compound 4 µM) | relative viability ([4]; first compound 0.04 µM) | relative viability ([4]; first compound 0.1265 µM) | relative viability ([4]; first compound 0.4 µM) | relative viability ([4]; first compound 1.265 µM) | relative viability ([4]; first compound 4 µM) | relative viability ([3]; first compound 0.4 µM)
NCI-H23 | 0.579 | 0.755 | 0.615 | 0.646 | 0.558 | 0.603 | 0.65 | 0.641 | 0.58 | 0.551 | 0.721 | 0.613 | 0.433 | 0.343 | 0.567 | 0.65 | 0.453 | 0.606 | 0.808 | –
NCI-H322M | 0.62 | 0.606 | 0.603 | 0.539 | 0.629 | 0.608 | 0.495 | 0.59 | 0.449 | 0.527 | 0.579 | 0.541 | 0.693 | 0.591 | 1.12 | 0.855 | 0.859 | 0.621 | 0.912 | 0.581
NCI-H358 | 0.159 | 0.193 | 0.176 | 0.151 | 0.167 | 0.867 | 0.656 | 0.772 | 0.62 | 0.764 | 0.339 | 0.401 | 0.384 | 0.216 | 0.695 | 0.622 | 0.661 | 0.586 | 0.686 | 0.316
NCI-H441 | 0.231 | 0.274 | 0.274 | 0.204 | 0.265 | 0.478 | 0.611 | 0.543 | 0.56 | 0.6 | 0.582 | 0.541 | 0.386 | 0.376 | 0.777 | 0.8 | 0.659 | 0.651 | 0.868 | 0.438
NCI-H460 | 0.0519 | 0.0632 | 0.0612 | 0.0661 | 0.0611 | 0.752 | 0.59 | 0.645 | 0.538 | 0.595 | 0.462 | 0.404 | 0.122 | 0.182 | 0.819 | 0.69 | 0.708 | 0.684 | 0.672 | 0.207
NCI-H520 | 0.667 | 0.719 | 0.762 | 0.576 | 0.602 | 0.261 | 0.32 | 0.268 | 0.214 | 0.248 | 0.326 | 0.31 | 0.265 | 0.182 | 0.854 | 0.684 | 0.663 | 0.576 | 0.591 | 0.256
NCI-H596 | 0.52 | 0.506 | 0.483 | 0.438 | 0.444 | 0.723 | 0.683 | 0.743 | – | 0.915 | 0.399 | 0.416 | 0.359 | 0.389 | 0.534 | 0.56 | 0.618 | 0.562 | 0.623 | 0.37
NCI-H647 | 0.165 | 0.173 | 0.166 | 0.159 | 0.135 | 0.671 | 0.855 | 0.557 | 0.413 | 0.462 | 0.614 | 0.307 | 0.207 | 0.276 | 0.453 | 0.591 | 0.414 | 0.364 | 0.543 | 0.249
NCI-H650 | 0.806 | 0.866 | 0.99 | 0.837 | 0.973 | 0.444 | 0.427 | 0.555 | 0.543 | 0.511 | 1.09 | 0.809 | 0.484 | 0.542 | 0.414 | 0.455 | 0.448 | 0.363 | 0.477 | 0.594
NCI-H661 | 0.908 | 0.973 | 0.941 | 0.921 | 0.921 | 0.629 | 0.674 | 0.669 | 0.586 | 0.621 | 0.415 | 0.457 | 0.202 | 0.288 | 0.78 | 0.794 | 0.757 | 0.704 | 0.663 | 0.33
NCI-H838 | 0.248 | 0.239 | 0.247 | 0.244 | 0.225 | 0.443 | 0.438 | 0.403 | 0.313 | 0.354 | 0.397 | 0.292 | 0.286 | 0.256 | 0.785 | 0.695 | 0.821 | 0.66 | 0.662 | 0.231
NCI-H1355 | 1.07 | 0.928 | 0.996 | 0.996 | 1.08 | 0.433 | 0.406 | 0.373 | 0.327 | 0.391 | 0.446 | 0.418 | 0.32 | 0.277 | 0.643 | 0.575 | 0.584 | 0.585 | 0.644 | 0.338
NCI-H1395 | 0.862 | 0.754 | 0.896 | – | 0.845 | 0.572 | 0.669 | 0.615 | 0.641 | 0.671 | 0.795 | 0.508 | 0.384 | 0.536 | 0.575 | 0.574 | 0.7 | – | 0.748 | 0.491
NCI-H1437 | 0.296 | 0.295 | 0.306 | 0.35 | 0.224 | 0.857 | 0.847 | 0.777 | 0.667 | 0.749 | 0.383 | 0.39 | 0.443 | 0.283 | 0.915 | 0.748 | 0.745 | 0.64 | 0.5 | 0.257
NCI-H1650 | 0.456 | 0.333 | 0.401 | 0.364 | 0.393 | 0.635 | 0.621 | 0.565 | – | 0.752 | 0.9 | 0.595 | 0.502 | 0.527 | 0.635 | 0.73 | 0.503 | 0.359 | 0.636 | 0.551
NCI-H1651 | 0.616 | 0.627 | 0.684 | 0.59 | 0.728 | 0.805 | 0.795 | 0.641 | 0.757 | 0.788 | 0.762 | 0.667 | 0.486 | 0.345 | 0.615 | 0.56 | 0.542 | 0.506 | 0.584 | 0.456
NCI-H1666 | 0.745 | 0.831 | 0.861 | 0.81 | 0.939 | 0.736 | 0.81 | 0.816 | 0.803 | 0.873 | 0.527 | 0.409 | 0.329 | 0.246 | 1.04 | 1.04 | 0.843 | 0.922 | 0.994 | 0.499
NCI-H1734 | 0.449 | 0.39 | 0.408 | 0.422 | 0.435 | 0.601 | 0.557 | 0.58 | 0.513 | 0.714 | 0.47 | 0.415 | 0.309 | 0.249 | 0.734 | 0.803 | 0.783 | 0.7 | 0.814 | 0.282
NCI-H1755 | 0.425 | 0.453 | 0.754 | 0.411 | 0.454 | 0.712 | 0.691 | 0.717 | 0.458 | 0.663 | 0.484 | 0.391 | 0.331 | 0.3 | 0.741 | 0.699 | 0.641 | 0.514 | 0.827 | 0.327
NCI-H1793 | 0.862 | 0.786 | 0.613 | 0.52 | 0.82 | 0.22 | 0.301 | 0.25 | – | 0.259 | 0.336 | 0.413 | 0.312 | 0.328 | 0.568 | 0.668 | 0.531 | 0.536 | 0.647 | 0.295
NCI-H1915 | 0.537 | 0.511 | 0.529 | 0.479 | 0.498 | 0.612 | 0.629 | 0.605 | 0.49 | 0.587 | 1.01 | 0.971 | 0.648 | 0.64 | 0.591 | 0.51 | 0.496 | 0.492 | 0.559 | 0.908
NCI-H1944 | 0.702 | 0.561 | 0.61 | 0.541 | 0.699 | 0.524 | 0.382 | 0.385 | 0.338 | 0.39 | 0.373 | 0.341 | 0.269 | 0.307 | 0.664 | 0.441 | 0.663 | 0.384 | 0.524 | –
NCI-H1975 | 0.318 | 0.295 | 0.298 | 0.298 | 0.276 | 0.766 | 0.68 | 0.676 | 0.579 | 0.64 | 0.253 | 0.192 | 0.143 | 0.148 | 0.796 | 0.703 | 0.704 | 0.654 | 0.687 | 0.157
NCI-H1993 | 0.597 | 0.644 | 0.575 | 0.513 | 0.674 | 0.49 | 0.55 | 0.614 | 0.494 | 0.604 | 0.885 | 0.855 | 0.625 | 0.712 | 0.846 | 0.983 | 0.648 | 0.816 | 0.964 | –
NCI-H2009 | 0.98 | 1.02 | 0.951 | 0.992 | 1.08 | 0.591 | 0.68 | 0.589 | 0.502 | 0.591 | 0.971 | 0.774 | 0.461 | 0.348 | 0.775 | 0.698 | 0.753 | 0.61 | 0.639 | 0.629
NCI-H2023 | 0.452 | 0.25 | 0.204 | 0.239 | 0.232 | 0.447 | 0.403 | 0.342 | 0.321 | 0.453 | 0.315 | 0.293 | 0.231 | 0.221 | 0.561 | 0.575 | 0.649 | 0.556 | 0.776 | 0.199
NCI-H2085 | 0.818 | 0.789 | 0.84 | 0.772 | 0.845 | 0.825 | 0.608 | 0.728 | 0.328 | 0.724 | 0.53 | 0.692 | 0.596 | 0.524 | 0.728 | 0.709 | 0.697 | 0.763 | 0.766 | 0.664
